Assay results as given in ChEMBL document CHEMBL3817825, “Synthesis and biological evaluation of Schiff base-linked imidazolyl naphthalimides as novel potential anti-MRSA agents” (2016).
Values after ≈ are worked out from the molar mass of the structure shown.

Assays:
Micrococcus luteus = experiment: Antibacterial activity against Micrococcus luteus ATCC4698 after 24 hrs by two fold serial dilution method; type: functional; details: ATCC4698, 24 h
Salmonella typhi = experiment: Antibacterial activity against Bacillus typhi after 24 hrs by two fold serial dilution method; type: functional, Salmonella enterica subsp. enterica serovar Typhi; details: Salmonella enterica
Staphylococcus aureus [1] = experiment: Antibacterial activity against Staphylococcus aureus ATCC25923 after 24 hrs by two fold serial dilution method; type: functional; details: ATCC25923, 24 h
Candida = experiment: Antifungal activity against Candida mycoderma ATCC10231 after 24 hrs by two fold serial dilution method; type: functional; details: ATCC10231, 24 h
Escherichia coli [2] = experiment: Antibacterial activity against Escherichia coli JM109 after 24 hrs by two fold serial dilution method; type: functional; details: JM109, 24 h
Pseudomonas aeruginosa = experiment: Antibacterial activity against Pseudomonas aeruginosa ATCC27853 after 24 hrs by two fold serial dilution method; type: functional; details: ATCC27853, 24 h
Shigella dysenteriae = experiment: Antibacterial activity against Shigella dysenteriae after 24 hrs by two fold serial dilution method; type: functional
Cyberlindnera jadinii = experiment: Antifungal activity against Candida utilis ATCC9950 after 24 hrs by two fold serial dilution method; type: functional; details: Williopsis jadinii, ATCC9950, 24 h
Escherichia coli [3] = experiment: Antibacterial activity against Escherichia coli DH52 after 24 hrs by two fold serial dilution method; type: functional; details: DH52, 24 h
Staphylococcus aureus [4] = experiment: Antibacterial activity against methicillin-resistant Staphylococcus aureus N315 after 24 hrs by two fold serial dilution method; type: functional; details: N315, 24 h
Saccharomyces cerevisiae = experiment: Antifungal activity against Beer yeast ATCC9763 after 24 hrs by two fold serial dilution method; type: functional; details: ATCC9763, 24 h
Bacillus subtilis [5] = experiment: Antibacterial activity against Bacillus subtilis ATCC6633 after 24 hrs by two fold serial dilution method; type: functional; details: ATCC6633, 24 h
Bacillus = experiment: Antibacterial activity against Bacillus proteus ATCC13315 after 24 hrs by two fold serial dilution method; type: functional; details: ATCC13315, 24 h
Aspergillus flavus = experiment: Antifungal activity against Aspergillus flavus ATCC204304 after 24 hrs by two fold serial dilution method; type: functional; details: ATCC204304, 24 h
Candida albicans = experiment: Antifungal activity against Candida albicans ATCC76615 after 24 hrs by two fold serial dilution method; type: functional; details: ATCC76615, 24 h
Bacillus subtilis [6] = experiment: Potency index, ratio of chloromycin MIC to compound MIC for Bacillus subtilis ATCC6633; type: functional

Compound	MIC (Micrococcus luteus) [µM]	MIC (Salmonella typhi) [µM]	MIC (Staphylococcus aureus [1]) [µM]	MIC (Candida) [µM]	MIC (Escherichia coli [2]) [µM]	MIC (Pseudomonas aeruginosa) [µM]	MIC (Shigella dysenteriae) [µM]	MIC (Cyberlindnera jadinii) [µM]	MIC (Escherichia coli [3]) [µM]	MIC (Staphylococcus aureus [4]) [µM]	MIC (Saccharomyces cerevisiae) [µM]	MIC (Bacillus subtilis [5]) [µM]	MIC (Bacillus) [µM]	MIC (Aspergillus flavus) [µM]	MIC (Candida albicans) [µM]	Ratio (Bacillus subtilis [6])
CCCCc1nc(Cl)c(/C=N/N2C(=O)c3cccc4c(N5CCOCC5)ccc(c34)C2=O)n1Cc1ccc(C)cc1	450 (≈ 257 µg/mL)	0.45 (≈ 0.257 µg/mL)	220 (≈ 125 µg/mL)	900 (≈ 513 µg/mL)	60 (≈ 34.2 µg/mL)	450 (≈ 257 µg/mL)	0.11 (≈ 0.0627 µg/mL)	110 (≈ 62.7 µg/mL)	890 (≈ 507 µg/mL)	450 (≈ 257 µg/mL)	450 (≈ 257 µg/mL)	890 (≈ 507 µg/mL)	450 (≈ 257 µg/mL)	900 (≈ 513 µg/mL)	450 (≈ 257 µg/mL)	
CCCCc1nc(Cl)c(/C=N/N2C(=O)c3cccc4c(N5CCCCC5)ccc(c34)C2=O)[nH]1	280 (≈ 130 µg/mL)	0.56 (≈ 0.26 µg/mL)	280 (≈ 130 µg/mL)	550 (≈ 255 µg/mL)	560 (≈ 260 µg/mL)	560 (≈ 260 µg/mL)	0.28 (≈ 0.13 µg/mL)	280 (≈ 130 µg/mL)	560 (≈ 260 µg/mL)	280 (≈ 130 µg/mL)	550 (≈ 255 µg/mL)	280 (≈ 130 µg/mL)	560 (≈ 260 µg/mL)	550 (≈ 255 µg/mL)	140 (≈ 65 µg/mL)	
CCCCc1nc(Cl)c(/C=N/N2C(=O)c3cccc4c(N5CCOCC5)ccc(c34)C2=O)n1Cc1ccccc1F	220 (≈ 126 µg/mL)	0.44 (≈ 0.253 µg/mL)	220 (≈ 126 µg/mL)	440 (≈ 253 µg/mL)	110 (≈ 63.1 µg/mL)	220 (≈ 126 µg/mL)	0.44 (≈ 0.253 µg/mL)	440 (≈ 253 µg/mL)	440 (≈ 253 µg/mL)	440 (≈ 253 µg/mL)	440 (≈ 253 µg/mL)	440 (≈ 253 µg/mL)	440 (≈ 253 µg/mL)	440 (≈ 253 µg/mL)	440 (≈ 253 µg/mL)	
CCCCc1nc(Cl)c(/C=N/N2C(=O)c3cccc4c(N5CCOCC5)ccc(c34)C2=O)n1Cc1cccc(F)c1	440 (≈ 253 µg/mL)	0.89 (≈ 0.511 µg/mL)	220 (≈ 126 µg/mL)	440 (≈ 253 µg/mL)	440 (≈ 253 µg/mL)	440 (≈ 253 µg/mL)	0.89 (≈ 0.511 µg/mL)	440 (≈ 253 µg/mL)	440 (≈ 253 µg/mL)	440 (≈ 253 µg/mL)	440 (≈ 253 µg/mL)	440 (≈ 253 µg/mL)	220 (≈ 126 µg/mL)	440 (≈ 253 µg/mL)	440 (≈ 253 µg/mL)	
CCCCc1nc(Cl)c(/C=N/N2C(=O)c3cccc4c(Br)ccc(c34)C2=O)[nH]1	1110 (≈ 510 µg/mL)	1.11 (≈ 0.51 µg/mL)	1110 (≈ 510 µg/mL)	1110 (≈ 510 µg/mL)	1110 (≈ 510 µg/mL)	560 (≈ 257 µg/mL)	0.56 (≈ 0.257 µg/mL)	1110 (≈ 510 µg/mL)	1110 (≈ 510 µg/mL)	560 (≈ 257 µg/mL)	140 (≈ 64.4 µg/mL)	560 (≈ 257 µg/mL)	1110 (≈ 510 µg/mL)	1110 (≈ 510 µg/mL)	1110 (≈ 510 µg/mL)	
CCCCc1nc(Cl)c(/C=N/N2C(=O)c3cccc4c(N5CCOCC5)ccc(c34)C2=O)n1Cc1ccc(F)cc1	440 (≈ 253 µg/mL)	0.44 (≈ 0.253 µg/mL)	890 (≈ 511 µg/mL)	440 (≈ 253 µg/mL)	440 (≈ 253 µg/mL)	890 (≈ 511 µg/mL)	0.89 (≈ 0.511 µg/mL)	440 (≈ 253 µg/mL)	890 (≈ 511 µg/mL)	440 (≈ 253 µg/mL)	890 (≈ 511 µg/mL)	440 (≈ 253 µg/mL)	440 (≈ 253 µg/mL)	890 (≈ 511 µg/mL)	440 (≈ 253 µg/mL)	
CCCCc1nc(Cl)c(/C=N/N2C(=O)c3cccc4c(N5CCOCC5)ccc(c34)C2=O)n1Cc1cccc(Cl)c1	430 (≈ 254 µg/mL)	0.43 (≈ 0.254 µg/mL)	430 (≈ 254 µg/mL)	430 (≈ 254 µg/mL)	430 (≈ 254 µg/mL)	430 (≈ 254 µg/mL)	0.11 (≈ 0.065 µg/mL)	220 (≈ 130 µg/mL)	430 (≈ 254 µg/mL)	430 (≈ 254 µg/mL)	220 (≈ 130 µg/mL)	7 (≈ 4.13 µg/mL)	220 (≈ 130 µg/mL)	430 (≈ 254 µg/mL)	430 (≈ 254 µg/mL)	14
CCCCc1nc(Cl)c(/C=N/N2C(=O)c3cccc4c(N5CCOCC5)ccc(c34)C2=O)n1Cc1ccccc1Cl	870 (≈ 514 µg/mL)	0.43 (≈ 0.254 µg/mL)	870 (≈ 514 µg/mL)	870 (≈ 514 µg/mL)	110 (≈ 65 µg/mL)	870 (≈ 514 µg/mL)	0.22 (≈ 0.13 µg/mL)	430 (≈ 254 µg/mL)	870 (≈ 514 µg/mL)	430 (≈ 254 µg/mL)	430 (≈ 254 µg/mL)	430 (≈ 254 µg/mL)	430 (≈ 254 µg/mL)	220 (≈ 130 µg/mL)	430 (≈ 254 µg/mL)	
CCCCCCCn1c(CCCC)nc(Cl)c1/C=N/N1C(=O)c2cccc3c(N4CCOCC4)ccc(c23)C1=O	450 (≈ 254 µg/mL)	0.45 (≈ 0.254 µg/mL)	450 (≈ 254 µg/mL)	450 (≈ 254 µg/mL)	450 (≈ 254 µg/mL)	450 (≈ 254 µg/mL)	0.91 (≈ 0.513 µg/mL)	450 (≈ 254 µg/mL)	450 (≈ 254 µg/mL)	450 (≈ 254 µg/mL)	450 (≈ 254 µg/mL)	450 (≈ 254 µg/mL)	450 (≈ 254 µg/mL)	450 (≈ 254 µg/mL)	230 (≈ 130 µg/mL)	
CCCCCCCCn1c(CCCC)nc(Cl)c1/C=N/N1C(=O)c2cccc3c(N4CCOCC4)ccc(c23)C1=O	880 (≈ 509 µg/mL)	0.44 (≈ 0.254 µg/mL)	220 (≈ 127 µg/mL)	440 (≈ 254 µg/mL)	220 (≈ 127 µg/mL)	880 (≈ 509 µg/mL)	0.88 (≈ 0.509 µg/mL)	880 (≈ 509 µg/mL)	440 (≈ 254 µg/mL)	440 (≈ 254 µg/mL)	880 (≈ 509 µg/mL)	440 (≈ 254 µg/mL)	440 (≈ 254 µg/mL)	880 (≈ 509 µg/mL)	440 (≈ 254 µg/mL)	
